The record followed here is patent publication US20140228286A1, “SPECIFIC PDE4B-INHIBITORS FOR THE TREATMENT OF DIABETES MELLITUS” (BOEHRINGER INGELHEIM INTERNATIONAL GMBH, priority 2013, published 2014).

Molecules are shown by their SMILES.

Broadly, the IC50 is the concentration needed to halve the response being measured.

T1 sequence (Q07343 324-656): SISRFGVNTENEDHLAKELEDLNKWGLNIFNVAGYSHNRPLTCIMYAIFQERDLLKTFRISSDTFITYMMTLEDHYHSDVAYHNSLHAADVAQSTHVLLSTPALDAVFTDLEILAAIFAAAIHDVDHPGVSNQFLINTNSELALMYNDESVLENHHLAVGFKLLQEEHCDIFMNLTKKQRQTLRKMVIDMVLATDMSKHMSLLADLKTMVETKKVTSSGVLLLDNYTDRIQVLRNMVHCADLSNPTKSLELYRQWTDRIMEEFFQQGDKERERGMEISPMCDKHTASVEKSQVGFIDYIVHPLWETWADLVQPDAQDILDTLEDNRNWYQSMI

This experiment concerns the target T1, PDE4B (Homo sapiens, UniProt Q07343).
T1 construct: active site fragment comprising the amino acids 152-484
Kind of experiment: PDE4B Scintillation Proximity (SPA) Assay. The following applies: PDE4B active site fragment amino acids 152-484; [3H]cAMP; 30° C., one hour; read-out: Experimentally determined IC50-value for PDE4B inhibition. Type of experiment: biochemical. An excerpt:
The IC50-values of the compounds of the invention (Examples 1.1 to 1.47) with respect to their PDE4B-inhibiting ability have been determined with a Scintillation Proximity (SPA) Assay (GE Healthcare, No. TRKQ7090). The Scintillation Proximity (SPA) Assay is based on the detection of the different affinities of the cyclic 3′-5′adenosine monophosphate (cAMP, low affinity) and the linear 5′-adenosine monophosphate (AMP, high affinity) to yttrium-silicate-scintillator beads. The cAMP-specific phosphodiesterase (PDE) PDE4B cleaves the 3′-phosphodiester bond of the tritium-labelled-[^3H]cAMP to the [^3H]5′-AMP. This [^3H]5′-AMP associates with the scintillator beads because of their higher affinity and causes scintillations (light flashes) which can be measured in a Wallac Microbeta Scintillation Counter.
10 μl of a [^3H]cAMP-solution (0.05 μCi in H2O, 10-30 Ci/mmol) are added to 89 μl of a PDE4B-enzyme-solution (active site fragment comprising the amino acids 152-484; 0.15-0.18 ng) in assay buffer (50 mM Tris HCl pH 7.5; 8.3 mM MgCl2; 1,7 mM ethylene glyclol tetraacetic acid (EGTA); 0.25 mg/ml bovine serum albumin (BSA)) and this mixture is incubated at 30° C. for one hour
a) without the compound to be tested (in the presence of 1 μl dimethylsulfoxide (DMSO), corresponding to 1% DMSO) and b) in the presence of the compound to be tested in a concentration of 125 μM, 25 μM, 5 μM, 1 μM, 200 nM, 40 nM, 8 nM, 1.6 nM, 0.32 nM, 0.064 nM, 0.0128 nM (dilution series in 5er-steps beginning from 125 μM until 0.0128 nM, in the presence of 1% DMSO).
After this incubation the reaction is stopped by the addition of 50 μl of bead-solution (500 mg beads/35 ml H2O, 18 mM zinc sulfate). In the following 45 minutes the beads have the opportunity to form a sediment. After that the scintillations are measured in the scintillation counter. If the tested compound is able to inhibit the enzymatic activity of the PDE4B-enzyme, less [^3H]AMP depending on the concentration of the tested compound is produced and less scintillations are measurable. […] The IC50-value stands for the compound concentration at which the PDE4B enzyme activity is inhibited to a half maximal value. Therefore the lower the IC50-value is the better is the PDE4B inhibition.
In the case of `CN(C(=O)c1ccc(OC2CCN(c3nc4c(c(NC5CCOCC5)n3)[S+]([O-])CC4)CC2)cc1)C1CC1` (centres unmarked) [Example 1.33, N-cyclopropyl-N-methyl-4-{1-[5-oxo-4-(tetrahydropyran-4-ylamino)-6,7-dihydro-5H-5λ^4-thieno[3,2-d]pyrimidin-2-yl]-piperidin-4-yloxy}-benzamide], the IC50 came out at 7.5 nM.

Take `CN1C[C@@H](Nc2nc(N3CCC(Oc4ccc(C5=NCCO5)cc4)CC3)nc3c2[S+]([O-])CC3)CCC1=O` (stereo partly drawn) [Example 1.28, (S)-5-(2-{4-[4-(4,5-dihydrooxazol-2-yl)-phenoxy]-piperidin-1-yl}-5-oxo-6,7-dihydro-5H-5λ^4-thieno[3,2-d]pyrimidin-4-ylamino)-1-methylpiperidin-2-one]: the IC50 was determined as 0.19 nM.

For the molecule `Cc1nc(C2CCN(c3nc4c(c(NC5(CO)CC5)n3)[S+]([O-])CC4)CC2)oc1-c1ccc(Cl)cc1` (centres unmarked) [Example 1.40, [1-(2-{4-[5-(4-chlorophenyl)-4-methyloxazol-2-yl]-piperidin-1-yl}-5-oxo-6,7-dihydro-5H-5λ^4-thieno[3,2-d]pyrimidin-4-ylamino)-cyclopropyl]-methanol], the IC50 was found to be 0.6 nM.

Consider `[O-][S+]1CCc2nc(N3CCC(c4noc5ccccc45)CC3)nc(NC3(CO)CC3)c21` (centres unmarked) [Example 1.8, {1-[2-(4-benzo[d]isoxazol-3-yl-piperidin-1-yl)-5-oxo-6,7-dihydro-5H-5λ^4-thieno[3,2-d]pyrimidin-4-ylamino]-cyclopropyl}-methanol], for which the 50% inhibitory concentration (IC50) came to 1.9 nM.

Consider `CN(C(=O)c1ccc(C2CCN(c3nc4c(c(NC5CCOCC5)n3)[S+]([O-])CC4)CC2)cc1)C1CC1` (centres unmarked) [Example 1.32, N-cyclopropyl-N-methyl-4-{1-[5-oxo-4-(tetrahydropyran-4-ylamino)-6,7-dihydro-5H-5λ^4-thieno[3,2-d]pyrimidin-2-yl]-piperidin-4-yl}-benzamide], for which the half-maximal inhibitory concentration (IC50) came out at 8.5 nM.

Consider `COC1(c2ccc(Cl)cc2)CCN(c2nc3c(c(NC4CCOCC4)n2)[S+]([O-])CC3)CC1` (centres unmarked) [Example 1.42, {2-[4-(4-chlorophenyl)-4-methoxypiperidin-1-yl]-5-oxo-6,7-dihydro-5H-5λ^4-thieno[3,2-d]pyrimidin-4-yl}-(tetrahydropyran-4-yl)-amine], for which the half-maximal inhibitory concentration (IC50) came to 3.8 nM.

As to `[O-][S+]1CCc2nc(N3CCC(c4ccc(Cl)cc4)CC3)nc(NC3CCOCC3)c21` (centres unmarked) [Example 1.6, {2-[4-(4-chlorophenyl)-piperidin-1-yl]-5-oxo-6,7-dihydro-5H-5λ^4-thieno[3,2-d]pyrimidin-4-yl}-(tetrahydropyran-4-yl)-amine], the half-inhibitory concentration (IC50) was 4.7 nM.

As to `[O-][S+]1CCc2nc(N3CCC(c4ccncc4)CC3)nc(Nc3cccc(F)c3)c21` (centres unmarked) [Example 1.12, (3-fluorophenyl)-[5-oxo-2-(3,4,5,6-tetrahydro-2H-[4,4′]bipyridinyl-1-yl)-6,7-dihydro-5H-5λ^4-thieno[3,2-d]pyrimidin-4-yl]-amine], the IC50 was over 10000 nM.

Take `CC(C)(O)C1(Nc2nc(N3CCC(c4ccc(Cl)cc4)CC3)nc3c2[S+]([O-])CC3)CC1` (centres unmarked) [Example 1.25, 2-(1-{2-[4-(4-chlorophenyl)-piperidin-1-yl]-5-oxo-6,7-dihydro-5H-5λ^4-thieno[3,2-d]pyrimidin-4-ylamino}-cyclopropyl)-propan-2-ol]: the IC50 turned out to be 1.8 nM.

In the case of `[O-][S+]1CCc2nc(N3CCC(Oc4ccc(C5=NCCO5)cc4)CC3)nc(NC3CCOCC3)c21` (centres unmarked) [Example 1.23, (2-{4-[4-(4,5-dihydrooxazol-2-yl)-phenoxy]-piperidin-1-yl}-5-oxo-6,7-dihydro-5H-5λ^4-thieno[3,2-d]pyrimidin-4-yl)-(tetrahydropyran-4-yl)-amine], the IC50 came to 1.7 nM.

Turning to `CN1C(=O)Nc2ccccc2C12CCN(c1nc3c(c(NC4CCOCC4)n1)[S+]([O-])CC3)CC2` (centres unmarked) [Example 1.11, 3′-methyl-1-(4-(tetrahydro-2H-pyran-4-ylamino)-5-oxo-6,7-dihydro-5H-5λ^4-thieno[3,2-d]pyrimidin-2-yl)-1′H-spiro[piperidin-4,4′-quinazolin]-2′(3′H)-one], the half-maximal inhibitory concentration (IC50) is over 10000 nM.

For the molecule `[O-][S+]1CCc2nc(N3CCC(c4ccc(F)cc4F)CC3)nc(NC3CCOCC3)c21` (centres unmarked) [Example 1.15, {2-[4-(2,4-difluorophenyl)-piperidin-1-yl]-5-oxo-6,7-dihydro-5H-5λ^4-thieno[3,2-d]pyrimidin-4-yl}-(tetrahydropyran-4-yl)-amine], the IC50 is 15.4 nM.

`[O-][S+]1CCc2nc(N3CCC(Oc4ccncc4)CC3)nc(NC3CCOCC3)c21` (centres unmarked) [Example 1.34, {5-oxo-2-[4-(pyridin-4-yloxy)-piperidin-1-yl]-6,7-dihydro-5H-5λ^4-thieno[3,2-d]pyrimidin-4-yl}-(tetrahydropyran-4-yl)-amine]: the IC50 is 8 nM.

As to `Cc1oc(C2CCN(c3nc4c(c(NC5(CO)CC5)n3)[S+]([O-])CC4)CC2)nc1-c1ccccc1` (centres unmarked) [Example 1.37, (1-{2-[4-(5-methyl-4-phenyloxazol-2-yl)-piperidin-1-yl]-5-oxo-6,7-dihydro-5H-5λ^4-thieno[3,2-d]pyrimidin-4-ylamino}-cyclopropyl)-methanol], the IC50 is 3.5 nM.

Regarding `CN1C[C@@H](Nc2nc(N3CCC(Oc4ccc(F)cc4)CC3)nc3c2[S+]([O-])CC3)CCC1=O` (stereo partly drawn) [Example 1.22, (S)-5-{2-[4-(4-fluorophenoxy)-piperidin-1-yl]-5-oxo-6,7-dihydro-5H-5λ4-thieno[3,2-d]pyrimidin-4-ylamino}-1-methylpiperidin-2-one], the IC50 came to 2.3 nM.

On to `CN1C[C@@H](Nc2nc(N3CCC(C#N)(c4ccccc4)CC3)nc3c2[S+]([O-])CC3)CCC1=O` (stereo partly drawn) [Example 1.10, 1-[4-((S)-1-methyl-6-oxopiperidin-3-ylamino)-5-oxo-6,7-dihydro-5H-5λ^4-thieno[3,2-d]pyrimidin-2-yl]-4-phenylpiperidin-4-carbonitrile], for which the IC50 was 3.5 nM.

Consider `Cn1cc(C2CCN(c3nc4c(c(NC5CCOCC5)n3)[S+]([O-])CC4)CC2)c2cc(C(C)(C)C)ccc21` (centres unmarked) [Example 1.26, {2-[4-(5-tert-butyl-1-methyl-1H-indol-3-yl)-piperidin-1-yl]-5-oxo-6,7-dihydro-5H-5λ^4-thieno[3,2-d]pyrimidin-4-yl}-(tetrahydropyran-4-yl)-amine], for which the IC50 is 38 nM.

As to `CN1C[C@@H](Nc2nc(N3CCC(c4ccc(Cl)cc4)CC3)nc3c2S(=O)(=O)CC3)CCC1=O` [Example 1.45, (S)-5-{2-[4-(4-chlorophenyl)-piperidin-1-yl]-5,5-dioxo-6,7-dihydro-5H-5λ^6-thieno[3,2-d]pyrimidin-4-ylamino}-1-methylpiperidin-2-one], the IC50 worked out at 54 nM.

For the molecule `[O-][S+]1CCc2nc(N3CCC(c4ccc(F)cc4F)CC3)nc(NC3(CO)CC3)c21` (centres unmarked) [Example 1.14, (1-{2-[4-(2,4-difluorophenyl)-piperidin-1-yl]-5-oxo-6,7-dihydro-5H-5λ^4-thieno[3,2-d]pyrimidin-4-ylamino}-cyclopropyl)-methanol], the IC50 was 16 nM.

Turning to `CC(C)[C@H](CO)Nc1nc(N2CCC(c3ccc(Cl)cc3)CC2)nc2c1[S+]([O-])CC2` (stereo partly drawn) [Example 1.1, (R)-2-{2-[4-(4-chlorophenyl)-piperidin-1-yl]-5-oxo-6,7-dihydro-5H-5λ^4-thieno[3,2-d]pyrimidin-4-ylamino}-3-methylbutan-1-ol], the IC50 worked out at 24.2 nM.

On to `Cc1oc(C2CCN(c3nc4c(c(N[C@H]5CCC(=O)N(C)C5)n3)[S+]([O-])CC4)CC2)nc1-c1ccccc1` (stereo partly drawn) [Example 1.36, (S)-1-methyl-5-{2-[4-(5-methyl-4-phenyloxazol-2-yl)-piperidin-1-yl]-5-oxo-6,7-dihydro-5H-5λ^4-thieno[3,2-d]pyrimidin-4-ylamino}-piperidin-2-one], for which the IC50 is 0.4 nM.

Take `CN1C[C@@H](Nc2nc(N3CCC(c4ccc(Cl)cc4)CC3)nc3c2[S+]([O-])CC3)CCC1=O` (stereo partly drawn) [Example 1.5, (S)-5-{2-[4-(4-chlorophenyl)-piperidin-1-yl]-5-oxo-6,7-dihydro-5H-5λ^4-thieno[3,2-d]pyrimidin-4-ylamino}-1-methylpiperidin-2-one]: the IC50 turned out to be 0.6 nM.

As for `CN1C[C@@H](Nc2nc(N3CCC(c4nc(-c5ccccc5)c(-c5ccccc5)o4)CC3)nc3c2[S+]([O-])CC3)CCC1=O` (stereo partly drawn) [Example 1.38, (S)-5-{2-[4-(4,5-diphenyloxazol-2-yl)-piperidin-1-yl]-5-oxo-6,7-dihydro-5H-5λ^4-thieno[3,2-d]pyrimidin-4-ylamino}-1-methylpiperidin-2-one], the IC50 came to 0.2 nM.
